The test system of assay [1] is C57BL6 mice (92 weeks old). Kind of assay: Treadmill running test of aged mice. The note with it: aged C57BL6 mice (92 weeks old), oral, 50 mg/kg/day, 2 months. The class given is in vivo, mouse. How it is done:
(§1) Water-suspended Compound #5 was orally administered to C57BL6 mice (92 weeks old) at a dose of 50 mg/kg/day per kg of mouse weight for 2 months ([MA5 addition group], n=5). After 2 months of oral administration, the mice were 101 weeks old.
(§2) In addition, water was orally administered to C57BL6 mice (92 weeks old) for 2 months ([Vehicle group], n=5). After 2 months of oral administration, the mice were 101 weeks old.

The test system of assay [2] is PPARγ Gene. Kind of assay: Quantitative PCR of PPARγ Gene in brown adipocytes of Ndufs4−/− mice. The note with it: 10 mg/day per kg, 50 days, vs CMC administration group. The class given is in vivo, mouse. As for the experimental part: (§3) Compound #5 was administered to NDUFS4 homozygous knockout mice (Ndufs4−/−mice) (4 weeks old) at a dose of 10 mg/day per kg of mouse weight for 50 days ([Compound #5 administration group]).
(§4) In addition, CMC (carboxymethylcellulose) was administered to NDUFS4 homozygous knockout mice (Ndufs4−/−mice) at a dose of 10 mg/day per kg of mouse weight for 50 days ([CMC administration group; Control group]).
(§5) Brown adipocytes were collected from the mice of [Compound #5 administration group] and [CMC administration group]. Total RNA was extracted from the brown adipocytes, and cDNA was prepared therefrom and used for measurement of mRNA expression level. The measurement was performed by a quantitative PCR method. The expression level of mRNA was determined with a relative ratio to β-actin used as an internal standard. As primers and probes, the following commercially available products (manufactured by Thermo Fisher Scientific Inc., and the like) were used. • Mouse Acts (actin beta, β-actin) Mm02619580_g1, Cat #4331182 • Mouse Ucp1 (uncoupling protein 1), Mm00494069_m1, Cat #4331182 • Mouse Pparg (PPARγ, peroxisome proliferator activated receptor gamma), Mm00440945_m1, Cat #4331182p • Mouse Fabp4 (fatty acid binding protein 4), Mm00445880_m1, Cat #4331182

The subject of assay [3] is liver cells of aged mice. Kind of assay: RNA-Seq and ChIP-Atlas analysis of liver cells of aged mice. Format: in vivo, mouse. The note with it: oral, 50 mg/kg/day, 2 months, Table 4. How it is done:
as §1, §2
RNA sequencing (RNA-Seq) analysis was performed on the liver cells of aged mice in [MA5 addition group] and [Vehicle group] to identify genes whose expression levels changed (increased or decreased) in [MA5 addition group] as compared with the […]. Using the results of these gene names, integrated analysis with ChIP-Atlas was performed to investigate transcription factors possibly related to these genes.

The subject of assay [4] is genomic DNA of the liver cells. Nature of the assay: Degree of methylation of genomic DNA of liver cells by the bisulfite method. Format: in vivo, mouse. The note with it: oral, 50 mg/kg/day, 2 months. How it is done: Water-suspended Compound #5 was orally administered to C57BL6 mice (12 weeks old) at a dose of 50 mg/kg/day per kg of mouse weight for 2 months ([MA5 high dose addition group], n=5). The degree of methylation of the genomic DNA of the liver cells of the young mice was measured by the bisulfite method.
Water-suspended Compound #5 was orally administered to C57BL6 mice (92 weeks old) at a dose of 50 mg/kg/day per kg of mouse weight for 2 months ([MA5 addition group], n=5). The degree of methylation of the genomic DNA of the liver cells of the aged mice was measured by the bisulfite method. In Table 9 and Table 10, “Count” represents how many genes were related among genes related to the pathway. For example, in a pathway involving 20 genes, when there are three genes whose expression levels have been varied by administration of Compound #5, Count is 3, and “ %” thereof is a numerical value calculated by (3/20)×100.
“P-value” represents the p-value of the between-group comparison of pathways, and “Benjamini” represents the p-value calculated using the linear step-up method of Benjamini and Hochberg (1995) (see, for example, https://david.ncifcrf.gov/helps/functional_annotation.html for calculation method).

Assay [5] has as its system Mouse inner ear cells HEI-OC1. Kind of assay: RNA-Seq and ChIP-Atlas analysis of HEI-OC1 cells. The note with it: 10 µM. The class given is cell-based. How it is done:
Mouse inner ear cells HEI-OC1 were cultured in 10% FBS-containing DMEM medium containing 10 µM of Compound #5 (dissolved in 0.1% DMSO) ([MA5 addition group], n=5).
In addition, mouse inner ear cells HEI-OC1 were cultured in 10% FBS-containing DMEM medium containing […] 0.1% DMSO ([Vehicle group], n=5).
RNA sequencing (RNA-Seq) analysis was performed on the HEI-OC1 cells in [MA5 addition group] and [Vehicle group] to identify genes whose expression levels changed (increased or decreased) in [MA5 addition group] as compared with [Vehicle group]. Using the results of these gene names, integrated analysis with ChIP-Atlas was performed to investigate transcription factors possibly related to these genes. The results of ChIP enrichment analysis (ChEA) are shown in Table 7, and the results of analysis by ENCODE and ChEA consensus TFs from ChIP-X are shown in Table 8.

For assay [6], the system named is FABP4 Gene. Nature of the assay: Quantitative PCR of FABP4 Gene in brown adipocytes of Ndufs4−/− mice. Format: in vivo, mouse. The note with it: 10 mg/day per kg, 50 days, vs CMC administration group. As for the experimental part:
as §3, §4, §5

Assay [7] relates to liver cells of young mice. Kind of assay: RNA-Seq and ChIP-Atlas analysis of liver cells of young mice. Format: in vivo, mouse. The note with it: oral, 50 mg/kg/day, 2 months, Table 3. As for the experimental part:
Water-suspended Compound #5 was orally administered to C57BL6 mice (12 weeks old) at a dose of 50 mg/kg/day per kg of mouse weight for 2 months ([MA5 addition group], n=5). After 2 months of oral administration, the mice were 20 weeks old.
In addition, water was orally administered to C57BL6 mice (12 weeks old) for 2 months ([Vehicle group], n=5). After 2 months of oral administration, the mice were 20 weeks old.
RNA sequencing (RNA-Seq) analysis was performed on the liver cells of young mice in [MA5 addition group] and [Vehicle group] to identify genes whose expression levels changed (increased or decreased) in [MA5 addition group] as compared with [Vehicle group]. Using the results of these gene names, integrated analysis with ChIP-Atlas was performed to investigate transcription factors possibly related to these genes.

Regarding `O=C(CC(C(=O)O)c1c[nH]c2ccccc12)c1ccc(F)cc1F` (stereo not shown) [Compound #5, 4-(2,4-difluorophenyl)-2-(1H-indole-3-yl)-4-oxo-butanoic acid], the “running time on a treadmill” value in assay [1] is “not reduced”. For the same molecule, in assay [1] (compared to Vehicle group), the “time until exhaustion (percentage of mice that continue running)” value is on record as “significantly improved”. Further, the “expression of PPARγ Gene” value in assay [2] is “significantly higher”. The “transcription factors related to genes whose expression increased (ChIP-Atlas)” value in assay [3] is “FOXO1 known as longevity genes and PPARA”. Besides, in assay [4] (aged mice (92 weeks old)), the “methylation of insulin resistance pathway” value is reported as “inhibited” and the “methylation of insulin signaling pathway” value is “inhibited”. In assay [4] (young mice (12 weeks old)), the “methylation of Insulin secretion pathway” value is given as “inhibited”, the “methylation of Signaling pathways regulating pluripotency of stem cells” value is recorded as “inhibited” and the “methylation of Wnt signaling pathway” value is on record as “inhibited”. Further, the “transcription factors related to genes whose expression increased (ChIP enrichment analysis, ChEA)” value in assay [5] (Table 7) was “SUZ^12 and EZH2, which are factors constituting polycomb repressive complex-2 (PRC2), which methylates histones, and SOX2”. In addition, the “transcription factors related to genes whose expression increased (ENCODE and ChEA consensus TFs from ChIP-X)” value in assay [5] (Table 8) is recorded as “PPARG (peroxisome proliferator-activated receptor γ), which is a longevity-related gene, MYC, which is one of the reprogramming factors necessary for the production of iPS cells, TRIM28”. Also, in assay [6], the “expression of FABP4 Gene” value is given as “higher”. The “transcription factors related to genes whose expression increased (ChIP-Atlas)” value in assay [7] was “MYC, OCT4, SOX2, and NANOG related to reprogramming factors in the production of iPS cells, RXR (retinoid X receptor) and PPARA (peroxisome proliferator-activated receptor a) related to SIRT, and TRIM28”.

The record behind these values is patent publication US20240307351A1, “AGENT FOR ANTI-AGING OR FOR CELLULAR REJUVENATION” (TOHOKU UNIVERSITY, priority 2022, published 2024).
